The NIST ThermoML archive (doi:10.1016/j.jct.2014.09.005)
Numbers after ± are expanded uncertainties.

Legend:
[1] = xn = mol fraction of the nth substance listed; details: 101 kPa, Liquid; for viscosity: Capillary tube (Ostwald / Ubbelohde) method; for mass density: Vibrating tube method
[2] = refractive index (Na D-line) (dimensionless); xn = mol fraction of the nth substance listed; details: 101 kPa, Liquid, Standard Abbe refractometry

NC1CCCCC1 [cyclohexylamine] + CCCCCCCO
Details | mass density, [1] [kg/m3] | refractive index, [2] | viscosity, [1] [mPa·s]
293.15 K, x2 = 0.1018 | 863.57 ± 0.23 | – | 2.454 ± 0.052
293.15 K, x2 = 0.1499 | 861.92 ± 0.23 | 1.45459 ± 0.00037 | 2.635 ± 0.056
293.15 K, x2 = 0.1996 | 860.22 ± 0.23 | 1.45301 ± 0.00037 | 2.838 ± 0.06
293.15 K, x2 = 0.2982 | 856.82 ± 0.23 | 1.44986 ± 0.00037 | 3.308 ± 0.07
293.15 K, x2 = 0.3979 | 853.09 ± 0.24 | 1.44669 ± 0.00037 | 3.844 ± 0.082
293.15 K, x2 = 0.4004 | – | 1.44661 ± 0.00037 | –
293.15 K, x2 = 0.4465 | 851.2 ± 0.24 | 1.44519 ± 0.00037 | 4.118 ± 0.087
293.15 K, x2 = 0.4931 | 849.3 ± 0.24 | 1.44365 ± 0.00037 | 4.381 ± 0.093
293.15 K, x2 = 0.5432 | 847.06 ± 0.24 | 1.44192 ± 0.00037 | 4.66 ± 0.099
293.15 K, x2 = 0.6008 | 844.43 ± 0.24 | 1.43985 ± 0.00037 | 4.98 ± 0.11
293.15 K, x2 = 0.6598 | 841.57 ± 0.24 | 1.43777 ± 0.00037 | 5.267 ± 0.11
293.15 K, x2 = 0.6969 | – | 1.4364 ± 0.00037 | –
293.15 K, x2 = 0.7019 | 839.35 ± 0.24 | – | 5.475 ± 0.12
293.15 K, x2 = 0.7479 | 836.94 ± 0.24 | 1.43438 ± 0.00037 | 5.687 ± 0.12
293.15 K, x2 = 0.7967 | 834.16 ± 0.24 | 1.43236 ± 0.00037 | 5.916 ± 0.12
293.15 K, x2 = 0.8466 | 831.39 ± 0.24 | 1.4305 ± 0.00037 | 6.158 ± 0.13
293.15 K, x2 = 0.8935 | 828.7 ± 0.24 | 1.42866 ± 0.00037 | 6.421 ± 0.14
293.15 K, x2 = 0.9432 | 825.75 ± 0.24 | 1.42665 ± 0.00037 | 6.717 ± 0.14
298.15 K, x2 = 0.1018 | 859.27 ± 0.23 | 1.45356 ± 0.00037 | 2.178 ± 0.046
298.15 K, x2 = 0.1499 | 857.64 ± 0.24 | 1.45216 ± 0.00037 | 2.338 ± 0.05
298.15 K, x2 = 0.1996 | 856.01 ± 0.24 | 1.45053 ± 0.00037 | 2.502 ± 0.053
298.15 K, x2 = 0.2982 | 852.71 ± 0.24 | 1.44763 ± 0.00037 | 2.892 ± 0.061
298.15 K, x2 = 0.3979 | 849.06 ± 0.24 | – | 3.334 ± 0.071
298.15 K, x2 = 0.4004 | – | 1.44444 ± 0.00037 | –
298.15 K, x2 = 0.4465 | – | 1.44298 ± 0.00037 | –
298.15 K, x2 = 0.4565 | 847.21 ± 0.24 | – | 3.558 ± 0.076
298.15 K, x2 = 0.4931 | 845.34 ± 0.24 | 1.44143 ± 0.00037 | 3.776 ± 0.08
298.15 K, x2 = 0.5432 | 843.14 ± 0.24 | 1.43977 ± 0.00037 | 4.007 ± 0.085
298.15 K, x2 = 0.5946 | – | 1.43797 ± 0.00037 | –
298.15 K, x2 = 0.6008 | 840.57 ± 0.24 | – | 4.267 ± 0.091
298.15 K, x2 = 0.6598 | 837.76 ± 0.24 | 1.43561 ± 0.00037 | 4.478 ± 0.095
298.15 K, x2 = 0.7019 | 835.59 ± 0.24 | 1.43404 ± 0.00037 | 4.682 ± 0.099
298.15 K, x2 = 0.7479 | 833.22 ± 0.24 | 1.43244 ± 0.00037 | 4.828 ± 0.1
298.15 K, x2 = 0.7967 | 830.49 ± 0.24 | 1.43053 ± 0.00037 | 5.057 ± 0.11
298.15 K, x2 = 0.8466 | 827.78 ± 0.24 | 1.42852 ± 0.00037 | 5.232 ± 0.11
298.15 K, x2 = 0.8935 | 825.11 ± 0.24 | 1.42666 ± 0.00037 | 5.43 ± 0.12
298.15 K, x2 = 0.9432 | 822.21 ± 0.24 | 1.42476 ± 0.00037 | 5.673 ± 0.12
303.15 K, x2 = 0.1018 | 854.9 ± 0.24 | 1.45099 ± 0.00037 | 1.931 ± 0.079
303.15 K, x2 = 0.1499 | 853.33 ± 0.24 | 1.44958 ± 0.00037 | 2.059 ± 0.084
303.15 K, x2 = 0.1996 | 851.74 ± 0.24 | 1.44805 ± 0.00037 | 2.204 ± 0.09
303.15 K, x2 = 0.2982 | 848.55 ± 0.24 | 1.4452 ± 0.00037 | 2.531 ± 0.1
303.15 K, x2 = 0.3979 | 845 ± 0.24 | 1.44224 ± 0.00037 | 2.895 ± 0.12
303.15 K, x2 = 0.4465 | 843.2 ± 0.24 | 1.44068 ± 0.00037 | 3.079 ± 0.12
303.15 K, x2 = 0.4931 | 841.35 ± 0.24 | 1.43923 ± 0.00037 | 3.258 ± 0.13
303.15 K, x2 = 0.5432 | 839.17 ± 0.24 | 1.43752 ± 0.00037 | 3.443 ± 0.14
303.15 K, x2 = 0.5946 | – | 1.43575 ± 0.00037 | –
303.15 K, x2 = 0.6008 | 836.68 ± 0.24 | 1.43554 ± 0.00037 | 3.658 ± 0.15
303.15 K, x2 = 0.6598 | 833.93 ± 0.24 | 1.43355 ± 0.00037 | 3.694 ± 0.15
303.15 K, x2 = 0.7019 | 831.8 ± 0.24 | 1.432 ± 0.00037 | 4.005 ± 0.16
303.15 K, x2 = 0.7479 | 829.48 ± 0.24 | 1.43042 ± 0.00037 | 3.974 ± 0.16
303.15 K, x2 = 0.7967 | 826.8 ± 0.24 | 1.42836 ± 0.00037 | 4.317 ± 0.17
303.15 K, x2 = 0.8466 | 824.12 ± 0.24 | 1.42657 ± 0.00037 | 4.283 ± 0.17
303.15 K, x2 = 0.8935 | 821.5 ± 0.24 | 1.42455 ± 0.00037 | 4.444 ± 0.18
303.15 K, x2 = 0.9432 | 818.64 ± 0.24 | 1.42262 ± 0.00037 | 4.626 ± 0.19
